Legend:
[1] = tested on: ptosis observed one hour after an intravenous injection (2 mg/kg) of reserpine; experiment: Test B: antagonism of the ptosis caused by reserpine in mice; assay type: in vivo; conditions: Mus musculus, po, 1 h, p.o., reserpine 2 mg/kg intravenous, read-out: Test B ED 50
Method: Antagonism with respect to the ptosis observed one hour after an intravenous injection (2 mg/kg) of reserpine given to mice, following the protocol described by C.

[2] = tested on: generalized trembling caused by an interperitoneal injection (200 mg/kg) of dl-5-hydroxytryptophane; experiment: Test A: potentiation in mice of generalized trembling caused by dl-5-hydroxytryptophane; assay type: in vivo; conditions: Mus musculus, po, dl-5-hydroxytryptophane 200 mg/kg intraperitoneal, read-out: Test A ED 50
Method: Potentiation in mice of generalized trembling caused by an interperitoneal injection (200 mg/kg) of dl-5-hydroxytryptophane, following the protocol described by C. GOURET and G. RAYNAUD in J. Pharmacol. (Paris), (1974) 5, 231.

[3] = tested on: pontogeniculo-occipital points (P.G.O.) caused by an intravenous injection (0.5 mg/kg) of reserpine; experiment: Test C: reduction in the density of pontogeniculo-occipital points (P.G.O.) caused by reserpine in cats; assay type: in vivo; conditions: Felis catus, ip, reserpine 0.5 mg/kg intravenous, read-out: Test C ED 50
Method: Reduction in the density of pontogeniculo-occipital points (P.G.O.) caused by an intravenous injection (0.5 mg/kg) of reserpine given to cats, following the protocol described by A. COSTON and C. GOURET in J. Pharmacol. (Paris) (1976), 7, 409.

Acute toxicity in mice = conditions: mouse, in vivo, po

Compound | ED50 [1] [mg/kg] | ED50 [2] [mg/kg] | ED50 [3] [mg/kg] | other results
O=C1OC(CO)CN1c1ccc(OCCN2CCOCC2)cc1 (centres unmarked) [750 601] | 8 | 70 | 31 | –
O=C1OC(CO)CN1c1ccc(OCc2cccc(Br)c2)cc1 (centres unmarked) [760 557] | 3.3 | 7.3 | 110 | mortality (Acute toxicity in mice; 1000 mg/kg): 0%
CC(=O)COc1ccc(N2CC(CO)OC2=O)cc1 (centres unmarked) [760 652, 3-(p-acetylmethyloxy) 5-hydroxymethyl 2-oxazolidinone] | – | – | – | mortality (Acute toxicity in mice; mice, dose administered 1000 mg/kg/p.o.): 0%
COCOc1ccc(N2CC(CO)OC2=O)cc1 (centres unmarked) [760 904] | 50 | 50 | 8.5 | –
CC(COc1ccc(N2CC(CO)OC2=O)cc1)=NO (centres unmarked) [770 126, oxime of 3-(p-acetylmethyloxyphenyl) 5-hydroxymethyl 2-oxazolidinone] | 11 | 8 | 16.5 | –
N#CCCOc1ccc(N2CC(CO)OC2=O)cc1 (centres unmarked) [770 131, 3-(2-p-cyanoethoxyphenyl) 5-hydroxymethyl 2-oxazolidinone] | 3 | 2.5 | 5.5 | mortality (Acute toxicity in mice; 1000 mg/kg): 0%
O=C1OC(CO)CN1c1ccc(C(F)(F)F)cc1 (centres unmarked) [770 152, 5-hydroxymethyl 3-p-trifluoromethylphenyl 2-oxazolidinone] | 25 | 20 | 15 | –
CC(C)C(=O)COc1ccc(N2CC(CO)OC2=O)cc1 (centres unmarked) [770 154] | 50 | 50 | 20 | –
CN(C)c1cccc(N2CC(CO)OC2=O)c1 (centres unmarked) [770 155] | 22.5 | 50 | 35 | –
CCCCCSc1ccc(N2CC(CO)OC2=O)cc1 (centres unmarked) [770 180] | 45 | 35 | 45 | –
C=CCCCOc1ccc(N2CC(CO)OC2=O)cc1 (centres unmarked) [770 196] | 15 | 20 | 16 | –
O=C1OC(CO)CN1c1ccc(OCc2cccnc2)cc1 (centres unmarked) [770 221] | 3.12 | 11.8 | 15 | –
CC(=O)COc1cccc(N2CC(CO)OC2=O)c1 (centres unmarked) [770 230] | 6.25 | – | 16 | –
N#CCOc1cccc(N2CC(CO)OC2=O)c1 (centres unmarked) [770 231, 5-hydroxymethyl 3-m-cyanomethyloxyphenyl 2-oxazolidinone] | 50 | 40 | 14 | –
O=C1OC(CO)CN1c1ccc(OCc2ccc(Cl)c(Cl)c2)cc1 (centres unmarked) [770 268] | 8.5 | 7 | – | –
O=C1OC(CO)CN1c1ccc(OCc2ccccn2)cc1 (centres unmarked) [770 298] | 12.5 | 55 | – | –
O=C1OC(CO)CN1c1ccc(OCc2ccncc2)cc1 (centres unmarked) [770 299] | 12.5 | 20 | – | –
N#Cc1ccccc1COc1ccc(N2CC(CO)OC2=O)cc1 (centres unmarked) [770 318] | 16 | 25 | – | –
CCCCCNc1ccc(N2CC(CO)OC2=O)cc1 (centres unmarked) [770 328, 3-p-n pentylaminophenyl 5-hydroxymethyl 2-oxazolidinone] | 35 | 25 | – | –
O=C1OC(CO)CN1c1ccc(OCc2ccc(Cl)cc2Cl)cc1 (centres unmarked) [770 354] | 30 | 25 | 30 | –
CCC(=O)c1ccc(N2CC(CO)OC2=O)cc1 (centres unmarked) [770 365] | 25 | 29 | – | –
O=C1OC(CO)CN1c1ccc(OCC2CC2)cc1 (centres unmarked) [770 388] | 12.5 | 9 | 4.5 | –

Compound | ED50 [1] [mg/kg] | ED50 [2] [mg/kg] | ED50 [3] [mg/kg] | other results
O=C1OC(CO)CN1c1ccc(OCc2cc(Cl)cc(Cl)c2)cc1 (centres unmarked) [770 416] | 10 | 6.2 | 3 | –
CCCC(=O)c1ccc(N2CC(CO)OC2=O)cc1 (centres unmarked) [770 423] | 25 | 35 | 5 | –
O=C1OC(CO)CN1c1ccc(OCC2=CCCC2)cc1 (centres unmarked) [770 466] | 6.2 | 9.6 | 9 | –
O=C1OC(CO)CN1c1ccc(OCC2CCCC2)cc1 (centres unmarked) [770 467] | 1.2 | 2.8 | 3 | –
CC(=O)CSc1ccc(N2CC(CO)OC2=O)cc1 (centres unmarked) [770 501, 3-(p-acetylmethylthiophenyl) 5-hydroxymethyl 2-oxazolidinone] | 25 | 22 | – | –
CC(=O)Nc1ccc(COc2ccc(N3CC(CO)OC3=O)cc2)cc1 (centres unmarked) [770 569] | 2.5 | 5 | 6 | –
O=C1OC(CO)CN1c1ccc(OCc2ccc(F)c(Cl)c2)cc1 (centres unmarked) [770 572] | 3.12 | 6.3 | 8.5 | –
O=C1OC(CO)CN1c1ccc(OCc2ccc(Cl)c([N+](=O)[O-])c2)cc1 (centres unmarked) [770 672] | 19 | 25 | – | –
O=C1OC(CO)CN1c1ccc(OCc2cccs2)cc1 (centres unmarked) [770 673] | 35 | 16 | 8 | –
O=C1OC(CO)CN1c1ccc(COc2ccccc2)cc1 (centres unmarked) [770 696] | 20 | 15 | – | –
O=C1OC(CO)CN1c1ccc(OCC2CCC2)cc1 (centres unmarked) [770 788] | 12.5 | 6.25 | – | –
N#Cc1cc(COc2ccc(N3CC(CO)OC3=O)cc2)ccc1F (centres unmarked) [770 789] | 2 | 3 | – | –
O=C1OC(CO)CN1c1ccc(OCc2ccc([N+](=O)[O-])c(Cl)c2)cc1 (centres unmarked) [770 790] | 25 | 50 | – | –
O=C1OC(CO)CN1c1ccc(OCc2cnccn2)cc1 (centres unmarked) [770 845] | 12.5 | 6.25 | – | –
O=C1OC(CO)CN1c1ccc(OCC2CCCCO2)cc1 (centres unmarked) [770 900] | 25 | 50 | – | –
O=C1OC(CO)CN1c1ccc(OCCC2CCCCC2)cc1 (centres unmarked) [770 949] | 16 | 10 | – | –
O=C1OC(CO)CN1c1ccc(OCc2ccc(F)c([N+](=O)[O-])c2)cc1 (centres unmarked) [770 955] | 7 | 13 | – | mortality (Acute toxicity in mice; 2000 mg/kg): 17%
O=C1OC(CO)CN1c1ccc(OCC2OCCO2)cc1 (centres unmarked) [770 962] | 50 | 26 | – | –
O=C1OC(CO)CN1c1ccc(OCc2ccoc2)cc1 (centres unmarked) [770 979] | 35 | 14 | – | –
O=C1OC(CO)CN1c1ccc(OCC2=CCC=CC2)cc1 (centres unmarked) [770 984] | 25 | 10 | – | –
O=C1OC(CO)CN1c1ccc(OCc2ccsc2)cc1 (centres unmarked) [771 067] | 12.5 | 7.5 | – | –
CC(C)CCOc1ccc(N2CC(CO)OC2=O)cc1 (centres unmarked) [771 082] | 0.7 | 1.3 | – | LD50 (Acute toxicity in mice): > 2000 mg/kg

Compound | ED50 [1] [mg/kg] | ED50 [2] [mg/kg] | ED50 [3] [mg/kg] | other results
N#Cc1cc(COc2ccc(N3CC(CO)OC3=O)cc2)cc([N+](=O)[O-])c1 (centres unmarked) [771 125] | 1.56 | 3.12 | – | –
O=C1OC(CO)CN1c1ccc(CCc2cccc(Cl)c2)cc1 (centres unmarked) [771 181] | 6.25 | 6.25 | – | –
CCC(CC)COc1ccc(N2CC(CO)OC2=O)cc1 (centres unmarked) [771 197] | 16 | 25 | – | –
O=C1OC(CO)CN1c1ccc(OCc2cc(Cl)cc([N+](=O)[O-])c2)cc1 (centres unmarked) [771 199] | 0.8 | 1.1 | – | –
Nc1cccc(COc2ccc(N3CC(CO)OC3=O)cc2)c1 (centres unmarked) [771 240] | 50 | 35 | – | –
O=C1OC(CO)CN1c1ccc(OCCC2CCCC2)cc1 (centres unmarked) [771 245] | 2 | 1.5 | – | LD50 (Acute toxicity in mice): > 2000 mg/kg
CC(C)(C)CCOc1ccc(N2CC(CO)OC2=O)cc1 (centres unmarked) [771 246] | 23 | 17 | – | –
CC(C)(C)COc1ccc(N2CC(CO)OC2=O)cc1 (centres unmarked) [771 249] | 50 | 22.5 | – | –
O=C1OC(CO)CN1c1ccc(COc2cccc([N+](=O)[O-])c2)cc1 (centres unmarked) [771 263, 3-para (metanitrophenoxymethyl) phenyl 5-hydroxymethyl 2-oxazolidinone] | 3.1 | 4 | – | –
O=C1OC(CO)CN1c1ccc(OCC2CCOCC2)cc1 (centres unmarked) [771 301] | 3 | 1.9 | – | LD50 (Acute toxicity in mice): > 2000 mg/kg
O=C1OC(CO)CN1c1ccc(OCc2cccc(I)c2)cc1 (centres unmarked) [771 321] | 20 | 25 | – | –
O=C1OC(CO)CN1c1ccc(OCC2CCCCCC2)cc1 (centres unmarked) [780 030] | 5.3 | 3 | – | –
O=C1OC(CO)CN1c1ccc(OCC2CCCOC2)cc1 (centres unmarked) [780 034] | 6.2 | 4.4 | – | –
CC1(COc2ccc(N3CC(CO)OC3=O)cc2)CCCC1 (centres unmarked) [780 076] | 7 | 2.3 | – | –
O=C1OC(CO)CN1c1ccc(OCC2SCCCS2)cc1 (centres unmarked) [780 077] | 44 | 25 | – | –
O=C1OC(CO)CN1c1ccc(OCC2SCCS2)cc1 (centres unmarked) [780 080, 3-para[(1,3-dithiolan-2-yl)-methoxy]phenyl 5-hydroxymethyl 2-oxazolidinone] | 50 | 50 | – | –
O=C1OC(CO)CN1c1ccc(OCC2OCCS2)cc1 (centres unmarked) [780 112] | 5.2 | 5 | – | –
COC(=O)Nc1ccc(COc2ccc(N3CC(CO)OC3=O)cc2)cc1 (centres unmarked) [780 182] | 25 | 40 | – | –
CCC(=O)Nc1ccc(COc2ccc(N3CC(CO)OC3=O)cc2)cc1 (centres unmarked) [780 443] | 12.5 | 3.7 | – | –
Cc1cccc(N2CC(CO)OC2=O)c1 (centres unmarked) [TOLOXATONE, reference compound] | 50 | 60 | 28 | –
